Columns and labels:
Assay type in all cases: cell-based, human
MM.1S cells = assay: Proliferation of MM cells in a modified Boyden chamber transwell co-culture system with BMSCs; conditions: 48 h
Method: Proliferation is measured in a modified Boyden chamber transwell system, using 24-well plates with a […] pore size inserts (Costar). BMSCs (4×10^4 cells/well) are plated in the lower chamber, starved, and incubated in an epothilone as described above. MM cells (20×10^4 cells/ml) are then placed in the upper chamber (insert), and [^3H]-thymidine uptake in the individual chambers is measured at 48 h as described above.
MM.1S cells are placed in the upper chamber of a transwell co-culture system in order to preclude direct contact between MM cells and BMSCs, but nonetheless allow for diffusion of humoral factors. Despite the lack of contact between the two cell types, uptake of [^3H]-dT by MM.1S cells incubated with BMSCs is increased by 2.2-fold (p<0.0001) at 48 h.

MM cells [1] = assay: Cell cycle analysis (propidium iodide, flow cytometry)
Method: MM cells (1×10^6 cells) are cultured in the presence of Epothilone B or DMSO control for 24, 48 and 72 h. Cells are then washed with phosphate buffered saline (PBS), fixed with 70% ethanol, and treated with RNAse (Sigma). Cells are next stained with propidium iodide (PI, 5 μg/mL), and the cell cycle profile is determined using the M software on an Epics flow cytometer (Coulter Immunology, Hialeah, Fla.).

MM cells [2] = assay: Proliferation ([3H]-thymidine) and cell viability (MTS) assays
Method: RPMI 8226 and U266 human MM cell lines can be obtained from the American Type Culture Collection (ATCC) of Rockville, Md. Patient derived MM cells are purified from patient BM samples, as described by Y. T. Tai, G. Teoh, Y. Shima, et al in J. Immunol. Methods 235:11, 2000. All human MM cell lines are cultured in RPMI-1640 media (Sigma Chemical, St. Louis, Mo.), containing 10% fetal bovine serum (FBS), 2 mmol/L L-glutamine (L-glut, GIBCO, Grand Island, N.Y.), 100 U/mL penicillin and […] streptomycin (P/S, GIBCO). MM patient cells are >95% CD38+, CD45RA−. […]
MM cells are first starved for 12 h in RPMI-1640 media containing […], and then plated into 96-well microtiter plates (Costar, Cambridge, Mass.), in the presence of drug or DMSO control. […] Proliferation is measured by the incorporation of [^3H]-thymidine (NEN Products, Boston, Mass.). Specifically, cells are pulsed with [^3H]-thymidine (0.5 μCi/well) for the last 6 h of 48 h cultures, harvested onto glass filters with an automatic cell harvester (Cambridge Technology, Cambridge, Mass.), and counted using a LKB Betaplate scintillation counter (Wallac, Gaithersburg, Md.). […] Cells are exposed to the MTS for the last 2 h of 48 h cultures, and absorbance is measured using an ELISA plate reader (Molecular Devices Corp., Sunnyvale, Calif.) at OD of 570 nm.

## C/C(=C\c1csc(C)n1)[C@@H]1C[C@@H]2O[C@]2(C)CCC[C@H](C)[C@H](O)[C@@H](C)C(=O)C(C)(C)[C@@H](O)CC(=O)O1 [epothilone B]
MM.1S cells
  proliferation of MM.1S cells ([3H]-dT uptake): reduces proliferation of MM.1S cells
MM cells [1]
  cell cycle effect / apoptosis: induces G2M arrest in MM cells with subsequent apoptosis
MM cells [2]
  growth and survival of myeloma cells: directly inhibit the growth and survival of myeloma cells
